How the values were obtained:
Experiment in all cases: S1P Receptor Binding Assay
[1] = target: T1, Sphingosine 1-phosphate receptor 4 (Homo sapiens, UniProt O95977); conditions: 25 °C
T1 sequence (O95977 whole entry): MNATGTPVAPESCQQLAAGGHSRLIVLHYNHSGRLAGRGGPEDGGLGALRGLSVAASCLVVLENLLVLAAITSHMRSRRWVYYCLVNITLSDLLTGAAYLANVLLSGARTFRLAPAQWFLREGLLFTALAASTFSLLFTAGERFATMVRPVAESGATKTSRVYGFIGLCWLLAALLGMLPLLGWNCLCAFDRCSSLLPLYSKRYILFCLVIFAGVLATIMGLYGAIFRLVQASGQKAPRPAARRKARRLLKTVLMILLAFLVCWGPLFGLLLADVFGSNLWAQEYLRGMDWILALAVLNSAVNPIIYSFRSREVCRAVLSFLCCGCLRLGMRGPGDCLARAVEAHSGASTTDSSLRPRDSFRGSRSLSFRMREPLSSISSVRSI
Description: (§1) The assay measures the displacement of [33P]-labeled sphingosine-1-phosphate (S1P) by test compounds from human S1P receptors expressed on CHO cell membranes. Binding was performed for 60 min at room temperature and terminated by collecting the membranes onto GF/B filter plates with a Packard Filtermate Universal Harvester. Filter bound radionuclide was measured on a PerkinElmer 1450 MicroBeta. Specific binding was calculated by subtracting radioactivity that remained in the presence of 1000-fold excess of unlabeled S1P.

[2] = target: Sphingosine 1-phosphate receptor 5 (Homo sapiens, UniProt Q9H228); conditions: 25 °C
Description: as §1

[3] = target: Sphingosine 1-phosphate receptor 3 (Homo sapiens, UniProt Q99500); conditions: pH 7.5; 22 °C
Description: as §1

Sphingosine 1-phosphate receptor 3, sequence (Q99500 whole entry): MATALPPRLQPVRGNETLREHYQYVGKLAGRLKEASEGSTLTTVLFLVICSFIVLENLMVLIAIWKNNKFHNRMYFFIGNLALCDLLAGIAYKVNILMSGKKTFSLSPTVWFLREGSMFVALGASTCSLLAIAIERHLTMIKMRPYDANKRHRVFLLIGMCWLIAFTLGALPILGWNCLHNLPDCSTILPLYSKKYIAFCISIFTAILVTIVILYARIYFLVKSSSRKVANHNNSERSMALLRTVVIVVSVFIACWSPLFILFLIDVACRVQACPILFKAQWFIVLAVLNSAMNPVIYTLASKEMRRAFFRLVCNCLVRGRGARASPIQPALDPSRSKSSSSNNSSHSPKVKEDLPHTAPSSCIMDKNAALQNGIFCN
Sphingosine 1-phosphate receptor 5, sequence (Q9H228 whole entry): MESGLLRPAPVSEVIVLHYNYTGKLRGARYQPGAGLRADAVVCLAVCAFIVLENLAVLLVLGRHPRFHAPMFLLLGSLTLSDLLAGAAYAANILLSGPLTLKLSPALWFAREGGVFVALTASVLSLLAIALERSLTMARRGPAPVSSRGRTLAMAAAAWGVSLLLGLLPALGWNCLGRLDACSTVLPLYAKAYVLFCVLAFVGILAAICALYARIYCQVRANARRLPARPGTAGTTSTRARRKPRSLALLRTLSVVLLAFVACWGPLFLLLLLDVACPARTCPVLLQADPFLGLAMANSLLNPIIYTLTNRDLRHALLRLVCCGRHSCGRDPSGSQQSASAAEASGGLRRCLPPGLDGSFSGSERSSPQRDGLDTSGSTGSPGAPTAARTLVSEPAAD

Row | IC50 [1] [µM] | IC50 [2] [µM] | IC50 [3] [µM] | SMILES
1 | 0.35 | 0.0024 |  | CCCCc1ccc(-c2nc(-c3ccc(CN4CC(C(=O)O)C4)cc3)no2)cc1 [1-({4-[5-(4-butylphenyl)-1,2,4-oxadiazol-3-yl]phenyl}methyl)azetidine-3-carboxylic acid]
2 |  |  | 10 | CC(C)(C)Cc1ccc(-c2nc(-c3ccc(CN4CC(C(=O)O)C4)cc3)no2)cc1 [1-[(4-{5-[4-(2,2-dimethylpropyl)phenyl]-1,2,4-oxadiazol-3-yl}phenyl)methyl]azetidine-3-carboxylic acid]
3 |  |  | 3.09 | CCC(C)(C)c1ccc(-c2nc(-c3ccc(CN4CC(C(=O)O)C4)cc3)no2)cc1 [1-[(4-{5-[4-(2-methylbutan-2-yl)phenyl]-1,2,4-oxadiazol-3-yl}phenyl)methyl]azetidine-3-carboxylic acid]
